Reference: patent US6734161B1, “Peptide nucleic acids having antibacterial activity” (priority 1997, dated 2004)
{LysNH2} = C-terminal lysine amide

Key:
Ribosomal RNAs [1] = assay: transcription vs. translation assay (32P-UTP and 35S-methionine incorporation); format: biochemical, E. coli; settings: increasing concentrations of PNA
Description: Transcription in the cell-free system was assayed using reactions that contained 34 μM of cold UTP and 1 μCi ^32P-UTP. After 30 minutes the reactions were stopped with 10 volumes of 5% TCA and incubated on ice for 30 minutes. Translation in the cell-free system was assayed using reactions that contained 5 mM cold UTP and 1 μCi ^35S-methionine. After 30 minutes the reactions were stopped with an equal volume of 1 M NaOH and placed at 37° C. for 15 minutes. An equal volume of cold 50% TCA containing 2% casein hydrolysate acids was added and after 30 minutes on ice, 1 mL of 5% TCA was added. The TCA precipitable material having radioactivity was collected by vacuum filtration, rinsed five times with 5% TCA and dried. Cerenkov and scintillation counting were used to determine ^32P-UTP and ^35S-methionine incorporation.
The transcription and translation activities yielding β-galactosidase was examined using ^32P-UTP and ^35S-methionine in the assay procedures of Example 5. With increasing concentrations of targeted PNA (SEQ ID NOs. 12 and 13), the level of radioactive methionine incorporation was reduced.

[2] = tested on: E. coli mutant strain (AS19); assay: cell growth assay using E. coli (AS19); settings: 100 μL liquid cultures
Description: Growth assays were initiated using Luria Broth (LB) Media inoculated with 1% (v/v) of an overnight E. coli culture. […] For liquid media cultures, 100 μL of inoculated LB media was aliquoted into microtitre plate wells containing PNA or antibiotic solutions and the plates were incubated overnight at 37° C. The presence or absence of growth was assessed visually as a zone of clearing on solid media or as a lack of turbidity in liquid cultures.
The assay was repeated with the cells in 100 μL liquid cultures. […] The inhibition was determined to be that concentration which visibly limited the growth of the E. coli in a 100 μL culture.

Ribosomal RNAs [3] = assay: cell-free translation assay (β-galactosidase production) with PNA targeted to ribosomal RNAs; format: biochemical, E. coli; settings: S-30 cell extract, ONPG
Description: (§1) Strain D10-1 was grown to mid log phase in LB media supplemented with 4 g/L glucose. The preparation of S-30 cell extracts and coupled transcription/translation reactions were carried out as described in Ellman, J., ibid., using plasmid pMAS2, which carries the E. coli gene for β-galactosidase.
Plasmid DNA encoding β-galactosidase was added to a template depleted E. coli S-30 cell extract along with the reagents necessary for coupled transcription/translation (Chen, ibid; Ellman, J., ibid). Production of β-galactosidase was measured […] using the substrate ONPG (Miller, ibid). The assay is sensitive to inhibitors that prevent complete or accurate translation of the enzyme. Several of the targeted PNAs inhibited β-galactosidase production in a dose dependent manner, with IC50s in the nanomolar range. […] The SEQ ID Nos. and the sequences are shown below in Table 2.
PNAs of similar composition, but unrelated sequence, were assayed along with targeted PNAs as controls for non-sequence specific effects. […] No inhibition was detected at a dose of 1 μM for the control PNAs.

E. coli strain K12 = assay: cell growth assay using E. coli (K12); settings: 2 μL applied onto solid media, overnight 37° C.
Description: Growth assays were initiated using Luria Broth (LB) Media inoculated with 1% (v/v) of an overnight E. coli culture. For solid media cultures, 2 mL of molten LB/agar media was inoculated and spread onto pre-warmed (LB)/agar plates. The excess molten media was poured off and the plates were left to solidity for 30 minutes. PNA and antibiotic solutions were pipetted (2 μL) directly onto the solidified overlay and the plates were incubated overnight at 37° C. For liquid media cultures, 100 μL of inoculated LB media was aliquoted into microtitre plate wells containing PNA or antibiotic solutions and the plates were incubated overnight at 37° C. The presence or absence of growth was assessed visually as a zone of clearing on solid media or as a lack of turbidity in liquid cultures.
The inhibition of cell growth was examined using PNA sequences 9-18 in E. coli grown on agar media. Luria broth (LB)/agar plates were prepared with a thin overlay of media containing an inoculum of E. coli strain K12. PNA solutions were applied directly onto the solidified overlay by direct pipetting of 2 μL aliquotes. After overnight incubation at 37° C., a lawn of bacterial cells was established.

β-lactamase = settings: for inhibition of β-lactamase production in strain carrying two base substitutions: AS19 transformed with pLac-2, compared with pBR322; for inhibition of β-lactamase production in strain carrying 6 base substitutions: AS19 transformed with pLac-6
Description: The cultures were grown at 37° C. to approximately 0.5 O.D. 550 nm. β-Lactamase activity was determined using the chromogenic β-lactamase substrate PADAC (Calbiochem, San Diego, Calif.) and absorbance measurements at 570 nm (Kobayashi, et al., Antimicrob. Agents Chemotherap., 1988, 32, 1040). β-Galactosidase activity was determined using the substrate o-nitrophenyl-β-galactoside (ONPG) and absorbance measurements at 420 nm as described previously (Miller, J. H., Experiments in Molecular Genetics, 1972, Cold Spring Harbor, N.Y., 1972, 82-85).
The cultures were grown at 37° C. to approximately 0.5 O.D. 550 nm.
The activity of PNAs in an in vivo assay was determined. […] 5-8 were included in cultures of permeable E. coli strain AS19 (Sekiguchi, ibid.) and the expression of β-galactosidase and β-lactamase was measured in cells exposed to IPTG at various time points.
The inhibition of β-lactamase production was evaluated by growing cells in the presence of PNA from an early stage to mid log phase.
The in vivo specificity of selected PNAs (SEQ ID NOs. 6 and 7) was determined using E. coli AS19 that was transformed with pBR322 and its derivatives containing the target site mutations (pLac-2 and pLac-6).

[4] = tested on: β-lactamase (start codon region); format: biochemical, E. coli; settings: for IC50: read-out: PNA concentration required for 50 % inhibition (IC50) of β-lactamase activity, S-30 cell extract, unmodified gene
[5] = tested on: β-Galactosidase (start codon region); assay: in vitro coupled transcription/translation in E. coli S-30 cell extract, β-galactosidase production; format: biochemical
Description: as §1
PNA oligomers (SEQ ID NOs. 5-8 above) were evaluated in an in vitro assay in which plasmid DNA encoding the genes for β-galactosidase and β-lactamase were added to a template depleted e. coli S-30 cell extract along with the reagents necessary for coupled transcription and translation (Chen, H. Z., Zubay, G., Methods in Enzymol., 1983, 101, 674-690; Ellman, J., et al., Methods in Enzymol., 1991, 202, 301-337). The assay is sensitive to inhibitors that prevent initiation of translation.

[6] = tested on: E. coli lac repressor gene (start codon region); assay: PNA-mediated upregulation of beta-galactosidase on X-gal LB/agar plate; format: cell-based; settings: lawn of E. coli AS19 on LB/agar with X-gal
Description: An antisense PNA (H-[…]-Lys-NH2, SEQ ID No: 27) was prepared targeting the start codon region of the E. coli lac repressor gene. The lacR gene normally limits beta-galactosidase expression in E. coli cells that are grown in nutrient rich conditions, without lactose. The anti-lacR PNA (SEQ ID No: 27) was applied to a lawn of E. coli AS19 cells grown on a LB/agar plate containing a chromogenic beta-galactosidase substrate (X-gal). The petri plate was prepared as described above.

[7] = concentrations as high as 400 nM

12 (TTNTNNNTTTNTNTCTTTCCGTCTT; listed as DNA, chemistry not given here) [compound 12]
level of radioactive UTP (transcription) (Ribosomal RNAs [1]): remained the same
level of radioactive methionine incorporation (translation) (Ribosomal RNAs [1]): reduced
concentration which visibly limited growth [2]: 30 µM
IC50 (Ribosomal RNAs [3]): 200 nM
growth inhibition (zones of clearing) (E. coli strain K12): inhibited cell growth

6 (TACTCATACTCTTCC; chemistry not given here) [compound 6]
inhibition of β-lactamase production in strain carrying two base substitutions (β-lactamase): reduced
inhibition of β-lactamase production in strain carrying 6 base substitutions (β-lactamase): abolished
IC50 [4]: 30 nM

5 (GGTCATAGCTGTTTC; all peptide nucleic acid (PNA), 3' {LysNH2}; further chemistry not fully specified) [compound 5]
IC50 ([5]; read-out: PNA concentration required for 50 % inhibition (IC50) of β-galactosidase activity, S-30 cell extract, coupled transcription and translation): 10 nM

8 (ACGCCACATCTTCGC; chemistry not given here) [compound 8]
inhibition of β-galactosidase production [5, 7]: no inhibition
inhibition of β-lactamase production [4, 7]: no inhibition

7 (GAATACTCATACTCT; chemistry not given here) [compound 7]
inhibition of β-lactamase production in strain carrying two base substitutions (β-lactamase): reduced
inhibition of β-lactamase production in strain carrying 6 base substitutions (β-lactamase): abolished
IC50 [4]: 200 nM

13 (NTNTNNTNTCCTCTC; listed as DNA, chemistry not given here) [compound 13]
level of radioactive UTP (transcription) (Ribosomal RNAs [1]): remained the same
level of radioactive methionine incorporation (translation) (Ribosomal RNAs [1]): reduced
concentration which visibly limited growth [2]: 10 µM
IC50 (Ribosomal RNAs [3]): 350 nM
growth inhibition (zones of clearing) (E. coli strain K12): inhibited cell growth

27 (ACATTCACCACCCTG; all peptide nucleic acid (PNA), 3' {LysNH2}; further chemistry not fully specified) [compound 27]
beta-galactosidase production (blue zone at sites of application) [6]: Increased beta-galactosidase production
